Test results published in US6710077B1, “Use of thiocarboxanilide derivatives for the preparation of a medicament for preventing the transmission of HIV to uninfected cells and contraceptive compositions comprising the said derivatives” (Uniroyal Chemical Company, Inc., priority 1996, dated 2004).

Columns and labels:
[1] = tested on: HIV-1 chronically-infected H9 cells; test: Incubation of HIV-1 chronically-infected H9 cells with test compounds, then infectivity on MT-2 cells; format: cell-based
From the text: FIG. 2 depicts the effect of pretreatment of chronically-infected H9 cells with Compound IA or UC84 on (A) virus particle release from H9 cells during drug exposure, as assessed by measurement of HIV-1 p24 levels; (B) infectivity of isolated virus produced by H9 cells during drug treatment, as assessed by the ability to subsequently infect MT2 cells in the absence of drug; and (C) the ability of Compound IA-pretreated chronically-infected H9 cells to subsequently infect MT2 cells in co-culture experiments carried out in the absence of drug. The data illustrated for (B) and (C) were obtained four days after exposure of MT2 cells to virus or H9 cells, respectively. (∘) Compound UC84; (●) Compound IA.
The cells were then separated from the culture supernatants by centrifugation at 1000×g for 10 min. The virus particles were isolated from the culture supernatants and from residual Compound IA using Centriprep-100 centrifugal concentrating devices and the dilution/concentration protocol described above in Example 1. The pelleted H9 cells were washed by suspension in 10 ml RPMI, followed by centrifugation at 1000×g for 10 min. The cell pellet was resuspended in 4 ml RPMI/10% FBS, and used in co-culture experiments as described below.
Aliquots of the final concentrated HIV suspension were added to MT-2 cells ([…] cells/ml). Virus infectivity was assessed 6 days post-infection by analysis of syncytium formation, and RT activity and p24 antigen in the MT-2 cell culture supernatants. Similarly, aliquots of the drug-treated H9 cells were added to MT-2 cells (3×10^5 cells/ml) to give a final MT-2:H9 cell ratio of 30:1. Cells were co-cultured for 4 days, and HIV infection of MT-2 cells was scored by assessing syncytium formation and by analysis of RT activity in the culture supernatants.

[2] = tested on: PBL cells isolated from blood of HIV-1 infected patients; test: Incubation of PBL from HIV-1 infected patients with compound, then co-culture with CBMC; format: cell-based; conditions: for infectivity of HIV-1 produced by patient PBL: 10 μM, 2 hr at 37° C., drug removed, co-culture with CBMC, p24 antigen, FIG. 3
Method: FIG. 3 depicts the effect of pretreatment of peripheral blood lymphocytes (PBL) from HIV-1 infected patients with Compound IA on the subsequent virus infectivity of CBMC cells. 2×10^6 isolated PBL cells were incubated for 2 hours with media only (●), 10 μM nevirapine (▪), or 10 μM Compound IA (▴), then residual drug was removed. The cells were then co-cultured with 2×10^6 CBMC cells and p24 production was monitored.
PBL cells (2×10^6 cells) isolated from blood of HIV-1 infected patients were incubated with media, 10 μM nevirapine and 10 μM Compound IA, in a total volume of 1 ml for 2 hr at 37° C. Excess drug was then removed by pelleting the cells by centrifugation at 300×g for 10 min and removal of the medium. The cell pellet was washed by suspension in 10 ml media, followed by centrifugation. This washing step was repeated twice. The final cell pellet was resuspended in 1 ml media, then co-cultured with 1 ml of activated CBMC (2×10^6 cells) The culture medium was changed every two days, and fresh activated CBMC (2×10^6 cells) were added once a week. HIV-1 production was monitored by measurement of p24 antigen levels in cell-free culture supernatants.
FIG. 3 illustrates the results obtained using PBL from three different patients.

[3] = tested on: HIV-1 infection of uninfected MT-2 cells; conditions: MT-2 cells pretreated with 2 μM, drug removed, continued presence of HIV-1
Method: FIG. 4A: Uninfected MT2 cells were incubated for 18 hours with varying concentrations of Compound IA in 1 ml media, then the cells were pelleted by centrifugation, and washed twice by resuspension in 10 ml medium followed by centrifugation. The cells were exposed to identical inocula of HIV-1 and cultured in the absence of added drug. Four days after removal of Compound IA, the extent of HIV-1 infection was assessed by measurement of syncytia formation (●), viral p24 antigen levels (▴), and RT activity (∘), in cell-free supernatants. […] Uninfected MT2 cells were incubated for 18 hours in the absence (∘) or the presence of 0.5 μM (▴), 1 μM (∇), or 2 μM (●), of Compound IA. […] Viral cytopathicity was scored by microscopic assessment of syncytia formation. […]
FIG. 5A: Uninfected MT2 cells were incubated for 18 hours in the absence (▪) or the presence (●) of 2 μM of Compound IA, then the cells were isolated and cultured in the absence of drug. At various times thereafter, HIV-1 was added and virus infectivity assessed by microscopic analysis of syncytium formation. […]
All cells were cultured in RPMI medium containing 10% fetal bovine serum. […] Virus production was assessed by measurement of RT activity and viral p24 antigen levels in the culture supernatants. […]

[4] = tested on: HIV-1; test: Preincubation of isolated HIV-1 with test compounds, then infection of PHA-activated CBMC; conditions: 2 hours at 37° C., drug removed, RT activity and p24 on day 7, FIG. 1
Method: Identical viral inocula (with respect to viral p24 levels) were then added to PHA-activated CBMC. Viral infectivity was assessed by measurement of RT activity in cell-free culture supernatants after 7 days incubation of cells and virus. […] The results are averages ±S.D. of triplicate determinations from three separate experiments.
All cells were cultured in RPMI medium containing 10% fetal bovine serum. HIV-1 stocks were propagated by subculture in MT-2 cells; aliquots of the cell-free culture supernatants were generally used as viral inocula. In some cases, virus was further concentrated from these cell-free supernatants by ultracentrifugation. CBMC were prestimulated with phytohemagglutinin (PHA) prior to use in infection experiments, as described in Rooke et al, Virology 176: 205-215 (1990). Stock solutions of the test compounds were prepared in dimethyl sulfoxide (DMSO). […] Virus production was assessed by measurement of RT activity and viral p24 antigen levels in the culture supernatants.
After incubation, drug-free RPMI was added to a final volume of 15 ml and the diluted sample was concentrated to a final volume of 0.7 ml using a Centriprep-100 centrifugal concentrating device, according to manufacturer's directions. […] On day 7, culture supernatants were isolated and HIV production assessed by measurement of RT activity and p24 antigen levels in the cell-free supernatants.

Row | SMILES | persistence of attenuated infectivity following removal of extracellular compound ([1]; chronically-infected H9 cells) | infectivity of virus produced by H9 cells following removal of compound ([1]; pretreated, washed H9 cells co-cultured with MT-2 cells in absence of drug) | infectivity of virus particles isolated after exposure of chronically-infected H9 cells ([1]; virus isolated from culture supernatants, added to MT-2 cells in absence of drug, FIG. 2) | viral infectivity after 30 days co-culture with uninfected CBMC ([2]; 10 μM pretreatment of patient PBL, 30 days co-culture) | infectivity of HIV-1 produced by patient PBL [2] | duration of resistance to the cytopathic effect of HIV-1 [3] | resistance of pretreated cells to the cytopathic effect of HIV-1 ([3]; syncytium formation) | viral infectivity after preincubation of isolated HIV-1 with compound [4]
1 | CC(C)=CCOc1cc(NC(=S)c2ccoc2C)ccc1Cl [Compound IA, N-[4-chloro-3-(3-methyl-2-butenyloxy)phenyl]-2-methyl-3-furancarbothioamide] | at least 4 days | also attenuated in infectivity | significantly attenuated in infectivity | No viral infectivity | abolished the infectivity | at least 9 days | completely resistant | rendered non-infectious
2 | Cc1ccnc2c1NC(=O)c1cccnc1N2C1CC1 [nevirapine, reference compound] | – | – | – | – | unable to significantly delay viral infectivity | – | – | No viral inactivation
